Results taken from PMC9150102 (Journal of Medicinal Chemistry, 2022).

Experiments:
[1] = biological target: T1, Na^+/K^+ ATPase-alpha1 isoform purified from dog kidneys (Canis lupus familiaris, UniProt P50997); test: Na+/K+ ATPase activity inhibition, purified dog kidney enzyme (32P-ATP hydrolysis); format: biochemical
T1 construct: excised from 1–3-year-old male beagle dogs; from tissue; host or cells: dog (beagle) kidney outer medulla, Jørgensen purification
Protocol: Compounds were tested in a concentration range from 10^–9 to 10^–4 M on a purified renal Na^+/K^+ ATPase preparation with a specific activity of 14 μmol/min/mg protein.
Figure 2 Na^+/K^+ ATPase activity inhibition in a dog purified enzyme preparation. All compounds were tested in a concentration range from 10^–9 to 10^–4 M in comparison to ouabain.
The inhibitory effect of compounds was tested at multiple concentrations on Na^+/K^+ ATPase-alpha1 isoform purified from dog kidneys. […]
Renal Na+/K+ ATPase purification and activity
Purification of renal Na+/K+ ATPase was performed according to the method of Jørgensen2. Kidneys were excised from 1–3-year-old male beagle dogs, obtained from the General Pharmacology Department of Sigma-tau, Pomezia, Italy, under pentobarbital anesthesia. Kidneys were sliced and the outer medulla was dissected, pooled and suspended (1g in 10 ml) in a sucrose-histidine solution, containing 250 mM sucrose, 30 mM histidine and 5 mM EDTA, pH 7.2 and homogenized. The homogenate was centrifuged at 6,000 g for 15 min, the supernatant was decanted and centrifuged at 48,000 g for 30 min. The pellet was suspended in the sucrose-histidine buffer and incubated for 20 min with a sodium-dodecyl-sulphate (SDS) solution, dissolved in a gradient buffer, containing 25 mM imidazole and 1 mM EDTA, pH 7.5. The sample was layered on the top of a sucrose discontinuous gradient (10, 15 and 29.4%) and centrifuged at 60,000 g for 115 min. The final pellet was suspended in the gradient buffer.
Na+/K+ ATPase activity was assayed by measuring 32P-ATP hydrolysis, as previously described3.
Increasing concentrations of the standard ouabain, or tested compound, were incubated with 0.3 μg of purified dog kidney enzyme for 10 min at 37°C in 120 μl final volume of a medium, containing 140 mM NaCl, 3 mM MgCl2, 50 mM Hepes-Tris, 3 mM ATP, pH 7.5. Then, 10 μl of incubation solution containing 10 mM KCl and 20 nCi of 32P-ATP (3-10 Ci/mmol, Perkin Elmer) were added, the reaction continued for 15 min at 37°C and was stopped by acidification with 20% ice-cold perchloric acid.
32P was separated by centrifugation with activated Charcoal (Norit A, Serva) and the radioactivity was measured. Effects of increasing concentrations of the tested compound were compared to ouabain, as positive standard, and to vehicle (control) at 37°C. The inhibitory activity was expressed as percent of activity in control. The concentration of compound causing 50% inhibition of the Na+/K+ ATPase activity (IC50) was calculated by non-linear fitting of data points (KaleidagraphTM, Sinergy Software). […]

[2] = biological target: T2, SERCA1 (Cavia porcellus, UniProt H0UXI0); test: SERCA1 ATPase activity in PLN-free skeletal muscle microsomes; format: biochemical, guinea pig; settings: 30 to 1000 nM
T2 construct: from tissue; host or cells: adult male guinea pig fast-twitch hind leg muscle, SR microsomes
Protocol: Data are the mean ± SEM. *p < 0.05 (one-way RM ANOVA plus post hoc Tukey’s multiple comparisons or paired t-test).
Measurements were performed in cardiac SR microsomes (guinea pig) and in whole tissue homogenates (rat). Cardiac preparations included SERCA2a and PLN. To test for PLN involvement in the effect of compounds, SERCA1 activity was measured in PLN-free microsomes (from guinea pig skeletal muscle) before and after reconstitution with the synthetic PLN1–32 inhibitory fragment at a ratio of 300:1 for PLN/SERCA. […] Either an increase in Vmax (rat) or a decrease in KdCa (increased Ca^2+ affinity) (guinea pig) stands for enhancement of SERCA function.
(rats). As verified by Western blot, cardiac microsomes preparations included SERCA2a and PLN and skeletal muscle ones included SERCA1 only.
SERCA stimulation4, compounds were also tested on SERCA1 in microsomes of guinea-pig skeletal muscle (PLN-free) before and after reconstitution with the PLN1-32 inhibitory fragment at a ratio of 300:1 […]
SERCA2a ATPase activity was measured as the rate of 32P-ATP release at multiple Ca2+ concentrations (100-2000 nM) in the absence and presence of tested compounds, as previously described5. […] 32P was separated by centrifugation with activated charcoal (Norit A, Serva) and the radioactivity was measured. […]

T2 sequence (H0UXI0 1-1001): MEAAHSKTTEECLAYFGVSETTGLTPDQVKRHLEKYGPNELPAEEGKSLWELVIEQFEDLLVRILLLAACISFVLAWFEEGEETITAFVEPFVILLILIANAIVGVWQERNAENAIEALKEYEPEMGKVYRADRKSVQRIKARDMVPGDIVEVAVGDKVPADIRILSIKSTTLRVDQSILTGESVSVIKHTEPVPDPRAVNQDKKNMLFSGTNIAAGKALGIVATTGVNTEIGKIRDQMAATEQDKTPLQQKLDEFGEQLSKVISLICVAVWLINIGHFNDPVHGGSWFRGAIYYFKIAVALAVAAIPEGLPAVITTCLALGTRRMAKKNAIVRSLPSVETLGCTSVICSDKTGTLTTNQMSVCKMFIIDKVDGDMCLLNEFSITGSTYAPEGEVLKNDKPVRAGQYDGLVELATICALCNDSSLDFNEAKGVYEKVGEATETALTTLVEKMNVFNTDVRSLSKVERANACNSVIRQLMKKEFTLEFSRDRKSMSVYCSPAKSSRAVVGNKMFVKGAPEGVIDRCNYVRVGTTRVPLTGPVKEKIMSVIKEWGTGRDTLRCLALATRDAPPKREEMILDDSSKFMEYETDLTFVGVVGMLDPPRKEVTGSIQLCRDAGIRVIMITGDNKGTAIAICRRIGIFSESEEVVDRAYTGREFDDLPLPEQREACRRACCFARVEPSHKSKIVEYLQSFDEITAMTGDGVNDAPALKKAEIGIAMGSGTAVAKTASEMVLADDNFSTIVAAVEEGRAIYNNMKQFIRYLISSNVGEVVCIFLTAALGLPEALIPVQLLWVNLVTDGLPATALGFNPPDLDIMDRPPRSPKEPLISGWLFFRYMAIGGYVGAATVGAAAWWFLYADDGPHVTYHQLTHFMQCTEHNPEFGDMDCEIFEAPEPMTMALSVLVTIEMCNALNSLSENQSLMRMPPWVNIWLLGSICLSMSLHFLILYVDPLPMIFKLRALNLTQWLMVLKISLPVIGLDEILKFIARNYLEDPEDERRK

Compound | IC50 [1] [µM] | skeletal SERCA1 activity in the absence of PLN [2]
C[C@]12CC[C@H](CCCC(=O)O)C[C@@H]1[C@@H](O)C[C@@H]1[C@@H]2CC[C@]2(C)C(=O)CC[C@@H]12 [Compound 5] | > 100 | failed to affect
C[C@]12CC[C@H](CC(=O)O)C[C@@H]1[C@@H](O)C[C@@H]1[C@@H]2CC[C@]2(C)C(=O)CC[C@@H]12 [Compound 8] | > 100 | failed to affect
